Results: patent publication US9738655B2, “Tetrahydroisoquinolines containing substituted azoles as factor XIa inhibitors” (BRISTOL-MYERS SQUIBB COMPANY, priority 2013, dated 2017)
Structures can show the parent of a compound that is named as a salt. Where two headings read alike, the source gives them in different places.

Tests used:
[1] = molecular target: purified human Factor XIa (Homo sapiens (Human), UniProt P03951); test: Factor XIa enzyme inhibition assay (chromogenic substrate S-2366)
[2] = molecular target: purified human plasma kallikrein (Homo sapiens (Human), UniProt P03952); test: Plasma kallikrein enzyme inhibition assay (chromogenic substrate S-2302); format: biochemical
Experimental: The effectiveness of compounds of the present invention as inhibitors of the coagulation Factors XIa, VIIa, IXa, Xa, XIIa, plasma kallikrein or thrombin, can be determined using a relevant purified serine protease, respectively, and an appropriate synthetic substrate. The rate of hydrolysis of the chromogenic or fluorogenic substrate by the relevant serine protease was measured both in the absence and presence of compounds of the present invention. […] A decrease in the rate of absorbance or fluorescence change in the presence of inhibitor is indicative of enzyme inhibition. […] The results of this assay are expressed as the inhibitory constant, Ki.
Values of Ki were determined by allowing the protease to react with the substrate in the presence of the inhibitor.
The following relationships were used to calculate Ki values: (Vmax*S)/(Km+S); (vo−vs)/vs=I/(Ki(1+S/Km)) for a competitive inhibitor with one binding site; or vs/vo=A+((B−A)/1+((IC50/(I)n))); and Ki−IC50/((1+S/Km) for a competitive inhibitor where:

[3] = read-out: Factor XIa Ki, measured at 25° C.
[4] = measured at 25° C. (no asterisk)

Sequence of purified human plasma kallikrein (P03952 391-638): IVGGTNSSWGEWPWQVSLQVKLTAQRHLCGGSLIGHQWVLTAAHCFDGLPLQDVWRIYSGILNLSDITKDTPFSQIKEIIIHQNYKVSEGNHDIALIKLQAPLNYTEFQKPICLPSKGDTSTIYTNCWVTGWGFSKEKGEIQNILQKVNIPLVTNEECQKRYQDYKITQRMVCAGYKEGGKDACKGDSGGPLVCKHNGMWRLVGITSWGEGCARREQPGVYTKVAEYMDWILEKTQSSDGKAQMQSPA
Sequence of purified human plasma kallikrein (P03952 20-390 partner): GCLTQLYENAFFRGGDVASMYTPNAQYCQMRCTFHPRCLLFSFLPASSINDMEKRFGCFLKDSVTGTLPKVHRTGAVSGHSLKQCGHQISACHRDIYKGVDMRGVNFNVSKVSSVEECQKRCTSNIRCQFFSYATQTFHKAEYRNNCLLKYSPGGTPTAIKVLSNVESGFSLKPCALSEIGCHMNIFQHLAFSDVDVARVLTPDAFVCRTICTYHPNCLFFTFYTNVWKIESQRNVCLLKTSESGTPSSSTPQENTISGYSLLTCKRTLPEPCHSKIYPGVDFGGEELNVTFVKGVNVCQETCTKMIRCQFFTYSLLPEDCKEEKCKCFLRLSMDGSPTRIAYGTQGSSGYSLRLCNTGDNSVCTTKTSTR
Sequence of purified human Factor XIa (P03951 388-625): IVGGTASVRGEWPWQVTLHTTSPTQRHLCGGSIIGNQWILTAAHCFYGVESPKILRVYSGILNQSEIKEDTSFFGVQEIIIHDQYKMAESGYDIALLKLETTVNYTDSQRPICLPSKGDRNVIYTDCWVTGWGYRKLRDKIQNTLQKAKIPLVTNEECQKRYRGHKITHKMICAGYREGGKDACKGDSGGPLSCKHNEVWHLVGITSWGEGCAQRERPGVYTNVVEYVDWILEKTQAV
Sequence of purified human Factor XIa (P03951 19-387 partner): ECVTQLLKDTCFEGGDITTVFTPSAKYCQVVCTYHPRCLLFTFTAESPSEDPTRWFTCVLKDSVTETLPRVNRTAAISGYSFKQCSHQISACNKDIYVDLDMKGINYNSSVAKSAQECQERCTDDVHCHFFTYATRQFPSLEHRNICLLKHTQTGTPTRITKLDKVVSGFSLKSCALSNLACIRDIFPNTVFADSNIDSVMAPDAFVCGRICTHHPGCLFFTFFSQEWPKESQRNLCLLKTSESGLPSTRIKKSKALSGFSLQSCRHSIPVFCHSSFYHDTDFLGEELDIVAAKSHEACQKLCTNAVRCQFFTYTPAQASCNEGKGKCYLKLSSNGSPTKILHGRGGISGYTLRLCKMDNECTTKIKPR

| SMILES | Ki [1, 3] [nM] | Ki [2, 4] [nM] | Ki [1] [nM] | Ki ([2]; measured at 37° C. (*)) [nM] |
| --- | --- | --- | --- | --- |
| O=C(O)c1ccc(NC(=O)C2c3cccc(-c4cncnc4)c3CCN2C(=O)c2cn(-c3cccc(Cl)c3F)nn2)cc1 (stereo not shown) [Example 12, 4-(2-(1-(3-Chloro-2-fluorophenyl)-1H-1,2,3-triazole-4-carbonyl)-5-(pyrimidin-5-yl)-1,2,3,4-tetrahydroisoquinoline-1-carboxamido)benzoic acid] | < 5 | 9.88 |  |  |
| N#Cc1ncc(-c2cccc3c2CCN(C(=O)c2cn(-c4cccc(Cl)c4F)nn2)C3C(=O)Nc2ccc(C(=O)O)cc2)cn1 (stereo not shown) [Example 32, 4-(2-(1-(3-chloro-2-fluorophenyl)-1H-1,2,3-triazole-4-carbonyl)-5-(2-cyanopyrimidin-5-yl)-1,2,3,4-tetrahydroisoquinoline-1-carboxamido)benzoic acid] |  | 17.5 | < 5 |  |
| COC1CCN(c2cccc3c2CCN(C(=O)c2cn(-c4cccc(Cl)c4F)cn2)[C@H]3C(=O)Nc2ccc(C(=O)O)cc2)CC1 [Example 272, (R)-4-(2-(1-(3-chloro-2-fluorophenyl)-1H-imidazole-4-carbonyl)-5-(4-methoxypiperidin-1-yl)-1,2,3,4-tetrahydroisoquinoline-1-carboxamido)benzoic acid, TFA salt] | 976 |  |  | > 6000 |
| O=C(O)c1ccc(NC(=O)[C@@H]2c3cccc(N4CCOCC4)c3CCN2C(=O)c2cnn(-c3cccc(Cl)c3F)c2)cc1 [Example 89, (S)-4-(2-(1-(3-Chloro-2-fluorophenyl)-1H-pyrazole-4-carbonyl)-5-morpholino-1,2,3,4-tetrahydroisoquinoline-1-carboxamido)benzoic acid, TFA salt] | < 5 | 11.4 |  |  |
| Cc1c(C(=O)N2CCc3c(-c4cncnc4)cccc3C2C(=O)Nc2ccc(-c3ncc[nH]3)cc2)ncn1-c1cccc(Cl)c1F (stereo not shown) [Example 136, N-(4-(1H-Imidazol-2-yl)phenyl)-2-(1-(3-chloro-2-fluorophenyl)-5-methyl-1H-imidazole-4-carbonyl)-5-(pyrimidin-5-yl)-1,2,3,4-tetrahydroisoquinoline-1-carboxamide, 2 TFA salt] | 6.97 |  |  | 157 |
| CC(C)c1nnc2n1CCN(c1cccc3c1CCN(C(=O)[C@H]1CC(c4cccc(Cl)c4F)=NO1)[C@H]3C(=O)Nc1ccc(C(=O)O)cc1)C2 [Example 337, 4-((R)-2-((R)-3-(3-Chloro-2-fluorophenyl)-4,5-dihydroisoxazole-5-carbonyl)-5-(3-isopropyl-5,6-dihydro-[1,2,4]triazolo[4,3-a]pyrazin-7(8H)-yl)-1,2,3,4-tetrahydroisoquinoline-1-carboxamido)benzoic acid, TFA salt] | 27.9 |  |  | 68.1 |
| O=C(O)c1ccc(NC(=O)[C@H]2c3cccc(-c4cncnc4)c3CCN2C(=O)c2cn(-c3cccc(Cl)c3F)nn2)cc1 [Example 13, (R)-4-(2-(1-(3-Chloro-2-fluorophenyl)-1H-1,2,3-triazole-4-carbonyl)-5-(pyrimidin-5-yl)-1,2,3,4-tetrahydroisoquinoline-1-carboxamido)benzoic acid] | 11.9 | 427 |  |  |
| COC1CCN(c2cccc3c2CCN(C(=O)c2cn(-c4cccc(Cl)c4F)cn2)[C@@H]3C(=O)Nc2ccc(C(=O)O)cc2)CC1 [Example 273, (S)-4-(2-(1-(3-chloro-2-fluorophenyl)-1H-imidazole-4-carbonyl)-5-(4-methoxypiperidin-1-yl)-1,2,3,4-tetrahydroisoquinoline-1-carboxamide)benzoic acid, TFA salt] | < 5 | 7.65 |  |  |
| COC1CCN(c2cccc3c2CCN(C(=O)c2cc(C)n(-c4ccc(Cl)cc4)c2C)C3C(=O)Nc2ccc(C(=O)O)cc2)CC1 (stereo not shown) [Example 147, 4-(2-(1-(4-chlorophenyl)-2,5-dimethyl-1H-pyrrole-3-carbonyl)-5-(4-methoxypiperidin-1-yl)-1,2,3,4-tetrahydroisoquinoline-1-carboxamido)benzoic acid, TFA salt] | 2690 |  |  | > 6000 |
| CN1CCN(c2cccc3c2CCN(C(=O)C2CC(c4cccc(Cl)c4)=NO2)C3C(=O)Nc2ccc(C(=O)O)cc2)CC1 (single isomer, unassigned) [Example 216, 4-(2-(3-(3-chlorophenyl)-4,5-dihydroisoxazole-5-carbonyl)-5-(4-methylpiperazin-1-yl)-1,2,3,4-tetrahydroisoquinoline-1-carboxamido)benzoic acid, 2 TFA salt] |  | 0.36 | < 5 |  |
| O=C(O)c1ccc(NC(=O)C2c3cccc(F)c3CCN2C(=O)c2cn(-c3cccc(Cl)c3F)nn2)cc1 (stereo not shown) [Example 195, 4-(2-(1-(3-Chloro-2-fluorophenyl)-1H-1,2,3-triazole-4-carbonyl)-5-fluoro-1,2,3,4-tetrahydroisoquinoline-1-carboxamido)benzoic acid] | 40.1 | 30.9 |  |  |
| Cn1cc2c(n1)CCN(C(=O)c1cn(-c3cccc(Cl)c3F)nn1)C2C(=O)Nc1ccc(C(=O)O)cc1 (stereo not shown) [Example 220, 4-(5-(1-(3-Chloro-2-fluorophenyl)-1H-1,2,3-triazole-4-carbonyl)-2-methyl-4,5,6,7-tetrahydro-2H-pyrazolo[4,3-c]pyridine-4-carboxamido)benzoic acid] | 769 | 179 |  |  |
| CN(C)C1CCN(c2cccc3c2CCN(C(=O)c2cn(-c4cccc(Cl)c4F)nn2)[C@H]3C(=O)Nc2ccc(C(N)=O)cc2)CC1 [Example 100, (R)-N-(4-Carbamoylphenyl)-2-(1-(3-chloro-2-fluorophenyl)-1H-1,2,3-triazole-4-carbonyl)-5-(4-(dimethylamino)piperidin-1-yl)-1,2,3,4-tetrahydroisoquinoline-1-carboxamide, bis-TFA salt] | 289 | 494 |  |  |
| COC1CCN(c2cccc3c2CCN(C(=O)c2cn(-c4cccc(Cl)c4F)nn2)C3C(=O)Nc2ccc(C(N)=O)cc2)CC1 (stereo not shown) [Example 335, N-(4-Carbamoylphenyl)-2-(1-(3-chloro-2-fluorophenyl)-1H-1,2,3-triazole-4-carbonyl)-5-(4-methoxypiperidin-1-yl)-1,2,3,4-tetrahydroisoquinoline-1-carboxamide, TFA salt] | < 5 |  |  | 96.9 |
| COC1CCN(c2cccc3c2CCN(C(=O)c2cnn(-c4ccnc(C)c4)c2)C3C(=O)Nc2ccc(C(=O)O)cc2)CC1 (stereo not shown) [Example 327, 4-(5-(4-Methoxypiperidin-1-yl)-2-(1-(2-methylpyridin-4-yl)-1H-pyrazole-4-carbonyl)-1,2,3,4-tetrahydroisoquinoline-1-carboxamido)benzoic acid, TFA salt] | 816 |  |  | > 6000 |
| COC1CCN(c2cccc3c2CCN(C(=O)c2cnn(-c4cccc(Cl)c4F)c2N)C3C(=O)Nc2ccc(C(=O)O)cc2)CC1 (racemic) [Example 309, 4-(2-(5-amino-1-(3-chloro-2-fluorophenyl)-1H-pyrazole-4-carbonyl)-5-(4-methoxypiperidin-1-yl)-1,2,3,4-tetrahydroisoquinoline-1-carboxamido)benzoic acid, 2 TFA salt] |  | 28.8 | < 5 |  |
| O=C(O)c1ccc(NC(=O)[C@@H]2c3cccc(-c4cncnc4)c3CCN2C(=O)c2cn(-c3cccc(Cl)c3F)nn2)cc1 [Example 14, (S)-4-(2-(1-(3-Chloro-2-fluorophenyl)-1H-1,2,3-triazole-4-carbonyl)-5-(pyrimidin-5-yl)-1,2,3,4-tetrahydroisoquinoline-1-carboxamido)benzoic acid] | < 5 | 6.27 |  |  |
| O=C(O)c1ccc(NC(=O)C2c3cccc(N4CCCCC4=O)c3CCN2C(=O)c2cn(-c3cccc(Cl)c3F)nn2)cc1 (stereo not shown) [Example 81, 4-(2-(1-(3-chloro-2-fluorophenyl)-1H-1,2,3-triazole-4-carbonyl)-5-(2-oxopiperidin-1-yl)-1,2,3,4-tetrahydroisoquinoline-1-carboxamido)benzoic acid] | < 5 | 20.7 |  |  |
| CO[C@@H]1CCN(c2cccc3c2CCN(C(=O)[C@H]2CC(c4cccc(Cl)c4F)=NO2)[C@H]3C(=O)Nc2ccc(C(=O)O)cc2)C1 [Example 299, 4-((R)-2-((R)-3-(3-chloro-2-fluorophenyl)-4,5-dihydroisoxazole-5-carbonyl)-5-((R)-3-methoxypyrrolidin-1-yl)-1,2,3,4-tetrahydroisoquinoline-1-carboxamido)benzoic acid, TFA salt] | 62.7 | 316 |  |  |
| CC(C)c1nnc2n1CCN(c1cccc3c1CCN(C(=O)c1cn(-c4cccc(Cl)c4F)nn1)[C@@H]3C(=O)Nc1ccc(C(=O)O)cc1)C2 [Example 66, (S)-4-(2-(1-(3-chloro-2-fluorophenyl)-1H-1,2,3-triazole-4-carbonyl)-5-(3-isopropyl-5,6-dihydro-[1,2,4]triazolo[4,3-a]pyrazin-7(8H)-yl)-1,2,3,4-tetrahydroisoquinoline-1-carboxamido)benzoic acid, TFA salt] | < 5 | 2.57 |  |  |
| O=C(O)c1ccc(NC(=O)C2c3cccc(OC4CCNCC4)c3CCN2C(=O)c2cn(-c3cccc(Cl)c3F)nn2)cc1 (stereo not shown) [Example 112, 4-(2-(1-(3-Chloro-2-fluorophenyl)-1H-1,2,3-triazole-4-carbonyl)-5-(piperidin-4-yloxy)-1,2,3,4-tetrahydroisoquinoline-1-carboxamido)benzoic acid, TFA salt] | < 5 | 3.16 |  |  |
| COC(=O)[C@H]1CC[C@@H](NC(=O)C2c3cccc(-c4cncnc4)c3CCN2C(=O)c2cn(-c3cccc(Cl)c3F)nn2)CC1 (stereo partly drawn) [Example 132, (1R,4R)-methyl 4-(2-(1-(3-chloro-2-fluorophenyl)-1H-1,2,3-triazole-4-carbonyl)-5-(pyrimidin-5-yl)-1,2,3,4-tetrahydroisoquinoline-1-carboxamido) cyclohexanecarboxylate] | 124 |  |  | 1620 |
| CN1CCN(c2cccc3c2CCN(C(=O)c2cn(-c4cccc(Cl)c4F)nn2)[C@H]3C(=O)Nc2ccc(C(=O)O)cc2)CC1=O [Example 288, (R)-4-(2-(1-(3-chloro-2-fluorophenyl)-1H-1,2,3-triazole-4-carbonyl)-5-(4-methyl-3-oxopiperazin-1-yl)-1,2,3,4-tetrahydroisoquinoline-1-carboxamido)benzoic acid, TFA salt] | 155 | 824 |  |  |
